Source: patent US20090155245A1, “Treatment for Organ Regeneration with Combination of Drug and Biologics” (priority 2007, published 2009)
“Also recorded” adds a separate entry of the source.

Tests used:
5/6 nephrectomy rats = experiment: 5/6 nephrectomy (Nx) rat study of chronic renal failure; assay type: in vivo, rat (inbred Lewis); details: 5/6 Nx rats, rhGDF-5 50 μg/kg ip 3 times per week
Protocol: Both sham and 5/6 Nx performed rats were treated 4 weeks post surgery with different reagents as indicated. The effects of the treatment were analyzed every two weeks through blood and urine sample analysis consisting of hematology, serum and urine chemistry and proteinuria. After 10 weeks of treatment, kidney samples were taken from the right kidney and evaluated using histopathology for glomerulorsclerosis, interstitial fibrosis and tubular degemation. All the data were converted to a weighted ranking system from 1 to 10 and averaged for the 10 weeks. A better efficacy from a treatment receives a higher score and the maximum score is the level for sham group. […]
rhGDF-5 was administrated 3 times per week at 50 μg/kg by ip. […] Effects of these treatments on kidney function was evaluated every two weeks by monitoring clinical observations, body weights, urine volume and duration of collection, and clinical pathology parameters through blood and urine sample analysis (hematology, serum chemistry, and urine chemistry). Residual urine samples were also evaluated for protein levels, beginning on Day 28, by AniLytics, Inc. On Day 70, surviving animals were euthanized and subjected to a limited necropsy, consisting of collection of the right kidney (2 sham groups) or the remaining third of the right kidney (all the Nx groups). […]

UUO induced renal injury = experiment: Unilateral Ureter Obstruction (UUO) model, H&E histology renal injury scoring; assay type: in vivo, mice (C57BL/6); details: UUO mice, 12 days of treatment, vs vehicle; rhGDF-5 300 μg/kg ip 3x/week, SD282 60 mg/kg gavage twice daily
Source text: The theraputic effects of rhGDF-5 was further tested along with SD282 in Unilateral Ureter Obstruction Model (UUO) in the present invention. Mice were subjected to unilateral ureter obstruction and treatment started on the same day as the UUO surgery. After 12 days of treatment, the obstructed kidneys were harvested for Hematoxylin and Eosin (H&E) staining and RT-PCR analysis. […] CCL2 induces recruitment of monocytes, T lymphocytes, eosinophils, and basophils and is responsible for many inflammatory reactions to disease, and has been linked to recruitment of osteoclast precursors. PDGF plays a role in embryonic development, cell proliferation, cell migration, and angiogenesis. […] The efficacy of rhGDF-5 was further tested along with SD282 in a mouse UUO model. Treatment started on the same day of the UUO, and included rhGDF-5 and SD282. At the end of the 12-day treatment, histology scoring and gene expression analysis was preformed on endpoint measurements. Unilateral Ureter Obstruction Model (“UUO”) was used because it is a commonly used mouse model for progressive tubulointerstitial fibrosis in the kidney. Male C57BL/6 mice were purchased at age 6 to 8 weeks from Jackson Labs (Bar Harbor, Me.). They were housed in an animal facility that was maintained at 25° C. with a 12-hour light-dark cycle. […]

[1] = test system: chemokine ligand 2 (CCL2) gene expression; experiment: UUO model, RT-PCR gene expression analysis of obstructed kidney (CCL2); assay type: in vivo, mice (C57BL/6); details: UUO mice, 12 days of treatment, vs controls
Source text: (§1) The theraputic effects of rhGDF-5 was further tested along with SD282 in Unilateral Ureter Obstruction Model (UUO) in the present invention. Mice were subjected to unilateral ureter obstruction and treatment started on the same day as the UUO surgery. After 12 days of treatment, the obstructed kidneys were harvested for Hematoxylin and Eosin (H&E) staining and RT-PCR analysis. […] CCL2 induces recruitment of monocytes, T lymphocytes, eosinophils, and basophils and is responsible for many inflammatory reactions to disease, and has been linked to recruitment of osteoclast precursors. PDGF plays a role in embryonic development, cell proliferation, cell migration, and angiogenesis.
(§2) The efficacy of rhGDF-5 was further tested along with SD282 in a mouse UUO model. Treatment started on the same day of the UUO, and included rhGDF-5 and SD282. At the end of the 12-day treatment, histology scoring and gene expression analysis was preformed on endpoint measurements.
(§3) Experimental animals were treated with rhGDF-5, 3 times per week, via ip injection at 300 μg/kg and SD282, twice, daily through gavage at 60 mg/kg dissolved in 0.5% methylcellulose. Control mice received an equal volume of 0.5% methylcellulose vehicle. Treatment dose was selected based on a review of the literature and represented the highest dose that was free of side effects in other experimental studies. […]

[2] = test system: platelet-derived growth factor (PDGF) gene expression; experiment: UUO model, RT-PCR gene expression analysis of obstructed kidney (PDGF); assay type: in vivo, mice (C57BL/6); details: UUO mice, 12 days of treatment, vs controls
Source text: as §1, §2, §3

diabetic rats = experiment: Streptozotocin-induced diabetic nephropathy rat model; assay type: in vivo; details: rhGDF-5 300 μg/kg ip 3x per week
Protocol: The efficacy of the combination therapy was tested in a diabetic nephropathy rat model.
Diabetic condition in the animals was induced for 1 week by a single i.v. injection of Streptozotocin. Subsequently, the animals were treated for 14 weeks with or without 300 μg/kg rhGDF-5 (i.p., 3× per week), 10 mg/kg of Enalapril (gavage, once daily), or a combination of the two.
Blood glucose measurements and subcutaneous insulin administrations (as necessary) were carried out thrice weekly to maintain a glucose level between 280 and 400 mg/dL. Urine samples were collected every two weeks; blood samples collected every four weeks for measuring level of urine microalbumin, serum creatinine, blood urea nitrogen, and urine creatinine. On week fourteen, a final set of samples was collected; then the animals were euthanized and subjected to a limited necropsy involving the collection of the kidneys. One kidney from each animal was flash frozen for gene expression analysis as needed and the other preserved in 10% neutral buffered formalin, after which it was examined microscopically.
Histological examination was performed on the kidneys. […] Slides were evaluated on the basis of morphologic changes according to the following grading scheme: 0=within normal limits; 1=minimal; 2=mild; 3=moderate. All microscopic slides were evaluated and gross and microscopic findings were reported.

rhGDF-5: recombinant human Growth and Differentiation factor-5, a protein belonging to the TGF-β superfamily (morphogen)
blood urea nitrogen levels (5/6 nephrectomy rats): some effect on reducing blood urea nitrogen levels | renal injury score (histology scoring, H&E) (UUO induced renal injury): reduced renal structural damage; also recorded: reduced renal injury score | CCL2 gene expression [1]: decreased expression of CCL2; also recorded: prevents chemokine ligand 2 (CCL2) | PDGF gene expression [2]: decreased expression; also recorded: prevents | urine microalbumin / protein level in urine (diabetic rats): comparable efficacy on reducing urine micro albumine level; also recorded: comparable effect on reducing protein level in urine
